Assay results taken from patent publication US8530489B2 (Vertex Pharmaceuticals Incorporated, priority 2006, dated 2013).

target: PLK1 (Homo sapiens, UniProt P53350); assay: PLK1 Inhibition Assay I (radioactive-phosphate incorporation); type: biochemical; conditions: Ki(app); PLK1 Inhibition Assay I or II (table does not say which)
In short: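 Ki(app) values came from non-linear regression of initial rates after background subtraction, with phosphopeptide measured by phosphocellulose filter binding and scintillation counting. PLK1 at 2 nM was preincubated with compound (typically from 10 μM, 2-fold dilutions) for 10 min, then run 240 min at 25° C with 350 μM [γ-33P]ATP and 450 μM peptide substrate in HEPES pH 7.5 buffer.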

Chain of PLK1 (P53350 whole entry): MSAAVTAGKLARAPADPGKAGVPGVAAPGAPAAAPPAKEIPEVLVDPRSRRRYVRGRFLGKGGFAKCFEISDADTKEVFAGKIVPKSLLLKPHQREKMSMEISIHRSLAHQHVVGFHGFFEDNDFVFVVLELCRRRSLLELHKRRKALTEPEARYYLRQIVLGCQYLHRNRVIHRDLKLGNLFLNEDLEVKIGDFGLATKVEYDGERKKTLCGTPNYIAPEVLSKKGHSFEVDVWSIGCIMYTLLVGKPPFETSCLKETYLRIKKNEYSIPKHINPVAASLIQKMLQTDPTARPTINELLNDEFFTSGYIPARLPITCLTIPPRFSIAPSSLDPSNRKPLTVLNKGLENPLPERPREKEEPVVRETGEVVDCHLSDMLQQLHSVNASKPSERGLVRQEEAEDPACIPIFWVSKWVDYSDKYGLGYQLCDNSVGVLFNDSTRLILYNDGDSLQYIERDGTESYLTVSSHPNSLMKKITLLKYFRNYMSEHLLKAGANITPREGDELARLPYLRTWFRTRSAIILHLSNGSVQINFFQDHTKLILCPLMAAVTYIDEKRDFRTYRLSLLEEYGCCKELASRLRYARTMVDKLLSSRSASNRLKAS

Row | SMILES | Ki
1 | COc1ccc(Sc2ncc(C#N)c(-c3c[nH]c4ncc(C(F)(F)F)cc34)n2)cc1 [II-3, 2-(4-methoxyphenylthio)-4-(5-(trifluoromethyl)-1H-pyrrolo[2,3-b]pyridin-3-yl)pyrimidine-5-carbonitrile] | > 40 nM
2 | CC(C)(Nc1ncc(C#N)c(-c2c[nH]c3ncc(C(F)(F)F)cc23)n1)C(=O)NCC(F)(F)F [IA-0, 2-(5-cyano-4-(5-(trifluoromethyl)-1H-pyrrolo[2,3-b]pyridin-3-yl)pyrimidin-2-ylamino)-2-methyl-N-(2,2,2-trifluoroethyl)propanamide] | 3 to 40 nM
3 | N#Cc1cnc(NCc2ccc(O)c(O)c2)nc1-c1c[nH]c2ncc(C(F)(F)F)cc12 [Compound I-37, 2-(3,4-dihydroxybenzylamino)-4-(5-(trifluoromethyl)-1H-pyrrolo[2,3-b]pyridin-3-yl)pyrimidine-5-carbonitrile] | > 40 nM
4 | CC(C)C[C@@H](N)C(=O)N1CCC([C@@H](C)Nc2ncc(C#N)c(-c3c[nH]c4ncc(C(F)(F)F)cc34)n2)CC1 [Compound I-241, 2-((R)-1-(1-((R)-2-amino-4-methylpentanoyl)piperidin-4-yl)ethylamino)-4-(5-(trifluoromethyl)-1H-pyrrolo[2,3-b]pyridin-3-yl)pyrimidine-5-carbonitrile] | 3 to 40 nM
5 | C[C@@H](Nc1ncc(C#N)c(-c2c[nH]c3ncc(C(F)(F)F)cc23)n1)C(=O)NC1CCCC1O (stereo partly drawn) [IA-13, (2R)-2-(5-cyano-4-(5-(trifluoromethyl)-1H-pyrrolo[2,3-b]pyridin-3-yl)pyrimidin-2-ylamino)-N-(2-hydroxycyclopentyl)propanamide] | 3 to 40 nM
6 | N#Cc1cnc(SCCc2ccccc2)nc1-c1c[nH]c2ncc(C(F)(F)F)cc12 [II-10, 2-(phenethylthio)-4-(5-(trifluoromethyl)-1H-pyrrolo[2,3-b]pyridin-3-yl)pyrimidine-5-carbonitrile] | > 40 nM
7 | CC(Nc1ncc(C#N)c(-c2c[nH]c3ncc(C(F)(F)F)cc23)n1)[C@H]1C[C@H](O)C1 (stereo partly drawn) [Compound I-269, 2-((S)-1-((1r,3S)-3-hydroxycyclobutyl)ethylamino)-4-(5-(trifluoromethyl)-1H-pyrrolo[2,3-b]pyridin-3-yl)pyrimidine-5-carbonitrile] | 3 to 40 nM
8 | CC(C)C(C)Nc1ncc(C#N)c(-c2c[nH]c3ncc(C(F)(F)F)cc23)n1 (centres unmarked) [Compound I-24, 2-(3-methylbutan-2-ylamino)-4-(5-(trifluoromethyl)-1H-pyrrolo[2,3-b]pyridin-3-yl)pyrimidine-5-carbonitrile] | 3 to 40 nM
9 | CC(Nc1ncc(C#N)c(-c2c[nH]c3ncc(C(F)(F)F)cc23)n1)c1ccc(O[C@@H]2CCN(C)C2)nc1 (stereo partly drawn) [Compound I-271, 2-(1-(6-((R)-1-methylpyrrolidin-3-yloxy)pyridin-3-yl)ethylamino)-4-(5-(trifluoromethyl)-1H-pyrrolo[2,3-b]pyridin-3-yl)pyrimidine-5-carbonitrile] | 3 to 40 nM
10 | N#Cc1cnc(NCCCn2ccnc2)nc1-c1c[nH]c2ncc(C(F)(F)F)cc12 [Compound I-80, 2-(3-(1H-imidazol-1-yl)propylamino)-4-(5-(trifluoromethyl)-1H-pyrrolo[2,3-b]pyridin-3-yl)pyrimidine-5-carbonitrile] | > 40 nM
11 | N#Cc1cnc(NC(CCO)C2CC2)nc1-c1c[nH]c2ncc(C(F)(F)F)cc12 (centres unmarked) [Compound I-106, 2-(1-cyclopropyl-3-hydroxypropylamino)-4-(5-(trifluoromethyl)-1H-pyrrolo[2,3-b]pyridin-3-yl)pyrimidine-5-carbonitrile] | 3 to 40 nM
12 | N#Cc1cnc(NCc2ccc(Cl)cc2)nc1-c1c[nH]c2ncc(C(F)(F)F)cc12 [Compound I-19, 2-(4-chlorobenzylamino)-4-(5-(trifluoromethyl)-1H-pyrrolo[2,3-b]pyridin-3-yl)pyrimidine-5-carbonitrile] | > 40 nM
13 | COc1ccccc1Sc1ncc(C#N)c(-c2c[nH]c3ncc(C(F)(F)F)cc23)n1 [II-14, 2-(2-methoxyphenylthio)-4-(5-(trifluoromethyl)-1H-pyrrolo[2,3-b]pyridin-3-yl)pyrimidine-5-carbonitrile] | > 40 nM
14 | N#Cc1cnc(NC2CC2)nc1-c1c[nH]c2ncc(C(F)(F)F)cc12 [Compound I-76, 2-(cyclopropylamino)-4-(5-(trifluoromethyl)-1H-pyrrolo[2,3-b]pyridin-3-yl)pyrimidine-5-carbonitrile] | > 40 nM
15 | C[C@@H](Nc1ncc(C#N)c(-c2c[nH]c3ncc(C(F)(F)F)cc23)n1)C1CCN(C(=O)[C@H]2C[C@H](O)CN2)CC1 [Compound I-263, 2-((R)-1-(1-((2R,4S)-4-hydroxypyrrolidine-2-carbonyl)piperidin-4-yl)ethylamino)-4-(5-(trifluoromethyl)-1H-pyrrolo[2,3-b]pyridin-3-yl)pyrimidine-5-carbonitrile] | < 3 nM
16 | C[C@@H](Nc1ncc(C#N)c(-c2c[nH]c3ncc(C(F)(F)F)cc23)n1)c1ccc(N(C)C)cc1 [Compound I-133, 2-((R)-1-(4-(dimethylamino)phenyl)ethylamino)-4-(5-(trifluoromethyl)-1H-pyrrolo[2,3-b]pyridin-3-yl)pyrimidine-5-carbonitrile] | < 3 nM
17 | C[C@@H](O)C(=O)N1CCC([C@@H](C)Nc2ncc(C#N)c(-c3c[nH]c4ncc(C(F)(F)F)cc34)n2)CC1 [Compound I-207, 2-((R)-1-(1-((R)-2-hydroxypropanoyl)piperidin-4-yl)ethylamino)-4-(5-(trifluoromethyl)-1H-pyrrolo[2,3-b]pyridin-3-yl)pyrimidine-5-carbonitrile] | < 3 nM

Second part, the compound after the results:

Row | Ki | SMILES
18 | < 3 nM | C[C@@H](Nc1ncc(C#N)c(-c2c[nH]c3ncc(C(F)(F)F)cc23)n1)C1CCN(C(=O)[C@H](N)CC(N)=O)CC1 [Compound I-250, (3R)-3-amino-4-(4-((1R)-1-(5-cyano-4-(5-(trifluoromethyl)-1H-pyrrolo[2,3-b]pyridin-3-yl)pyrimidin-2-ylamino)ethyl)piperidin-1-yl)-4-oxobutanamide]
19 | < 3 nM | CC[C@@H](O)C(=O)N1CCC([C@@H](C)Nc2ncc(C#N)c(-c3c[nH]c4ncc(C(F)(F)F)cc34)n2)CC1 [Compound I-219, 2-((R)-1-(1-((R)-2-hydroxybutanoyl)piperidin-4-yl)ethylamino)-4-(5-(trifluoromethyl)-1H-pyrrolo[2,3-b]pyridin-3-yl)pyrimidine-5-carbonitrile]
20 | < 3 nM | C[C@@H](Nc1ncc(C#N)c(-c2c[nH]c3ncc(C(F)(F)F)cc23)n1)C1CCN(C(=O)[C@H](N)CC#N)CC1 [Compound I-251, 2-((R)-1-(1-((R)-2-amino-3-cyanopropanoyl)piperidin-4-yl)ethylamino)-4-(5-(trifluoromethyl)-1H-pyrrolo[2,3-b]pyridin-3-yl)pyrimidine-5-carbonitrile]
21 | < 3 nM | C[C@H](N)C(=O)N1CCC([C@@H](C)Nc2ncc(C#N)c(-c3c[nH]c4ncc(C(F)(F)F)cc34)n2)CC1 [Compound I-243, 2-((R)-1-(1-((S)-2-aminopropanoyl)piperidin-4-yl)ethylamino)-4-(5-(trifluoromethyl)-1H-pyrrolo[2,3-b]pyridin-3-yl)pyrimidine-5-carbonitrile]
22 | < 3 nM | CC(Nc1ncc(C#N)c(-c2c[nH]c3ncc(C(F)(F)F)cc23)n1)C1CCN(C(=O)CN(C)C)CC1 (centres unmarked) [Compound I-193, 2-(1-(1-(2-(dimethylamino)acetyl)piperidin-4-yl)ethylamino)-4-(5-(trifluoromethyl)-1H-pyrrolo[2,3-b]pyridin-3-yl)pyrimidine-5-carbonitrile]
23 | < 3 nM | C[C@@H](Nc1ncc(C#N)c(-c2c[nH]c3ncc(C(F)(F)F)cc23)n1)c1ccc(S(N)(=O)=O)cc1 [Compound I-196, 4-((1R)-1-(5-cyano-4-(5-(trifluoromethyl)-1H-pyrrolo[2,3-b]pyridin-3-yl)pyrimidin-2-ylamino)ethyl)benzenesulfonamide]
24 | < 3 nM | CC(Nc1ncc(C#N)c(-c2c[nH]c3ncc(C(F)(F)F)cc23)n1)C1CCN(C(=O)CO)CC1 (centres unmarked) [Compound I-192, 2-(1-(1-(2-hydroxyacetyl)piperidin-4-yl)ethylamino)-4-(5-(trifluoromethyl)-1H-pyrrolo[2,3-b]pyridin-3-yl)pyrimidine-5-carbonitrile]
25 | < 3 nM | C[C@@H](Nc1ncc(C#N)c(-c2c[nH]c3ncc(C(F)(F)F)cc23)n1)C1CCN(C(=O)[C@@H](N)CO)CC1 [Compound I-239, 2-((R)-1-(1-((S)-2-amino-3-hydroxypropanoyl)piperidin-4-yl)ethylamino)-4-(5-(trifluoromethyl)-1H-pyrrolo[2,3-b]pyridin-3-yl)pyrimidine-5-carbonitrile]
26 | < 3 nM | CC(Nc1ncc(C#N)c(-c2c[nH]c3ncc(C(F)(F)F)cc23)n1)C1CCN(S(C)(=O)=O)CC1 (centres unmarked) [Compound I-150, 2-(1-(1-(methylsulfonyl)piperidin-4-yl)ethylamino)-4-(5-(trifluoromethyl)-1H-pyrrolo[2,3-b]pyridin-3-yl)pyrimidine-5-carbonitrile]
27 | < 3 nM | C[C@@H](Nc1ncc(C#N)c(-c2c[nH]c3ncc(C(F)(F)F)cc23)n1)c1ccc(N2CCN3CCC[C@H]3C2)nc1 [Compound I-291, 2-((R)-1-(6-((S)-hexahydropyrrolo[1,2-a]pyrazin-2(1H)-yl)pyridin-3-yl)ethylamino)-4-(5-(trifluoromethyl)-1H-pyrrolo[2,3-b]pyridin-3-yl)pyrimidine-5-carbonitrile]
28 | < 3 nM | CNS(=O)(=O)c1ccc([C@@H](C)Nc2ncc(C#N)c(-c3c[nH]c4ncc(C(F)(F)F)cc34)n2)cc1 [Compound I-200, 4-((1R)-1-(5-cyano-4-(5-(trifluoromethyl)-1H-pyrrolo[2,3-b]pyridin-3-yl)pyrimidin-2-ylamino)ethyl)-N-methylbenzenesulfonamide]
29 | < 3 nM | CC(Nc1ncc(C#N)c(-c2c[nH]c3ncc(C(F)(F)F)cc23)n1)c1ccc(N[C@@H]2CCN(C)C2)nc1 (stereo partly drawn) [Compound I-293, 2-(1-(6-((R)-1-methylpyrrolidin-3-ylamino)pyridin-3-yl)ethylamino)-4-(5-(trifluoromethyl)-1H-pyrrolo[2,3-b]pyridin-3-yl)pyrimidine-5-carbonitrile]
